Measurements published in US5932568A, “6-methoxy-1H-benzotriazole-5-carboxamide derivatives and pharmaceutical compositions containing them” (priority 1994, dated 1999).
Counter-ions that a name gives are not always drawn.

What was measured:
dopamine D2 receptor = conditions: cited from earlier work
in vivo = conditions: mouse, oral, mice, 7 days observation
[1] = tested on: gastric emptying delayed by morphine; assay: Effect on gastric emptying delayed by morphine; format: in vivo, Male Wistar rats; design: key to Effect on gastric emptying delayed by morphine: +: slightly to moderately improved; ++: markedly improved; ±: no improvement; conditions: for Effect on gastric emptying delayed by morphine: morphine 3 mg/kg s.c.
Method: (§1) The test was carried out according to the method of Scarpignato et al. [c f. Arch. int. Pharmacodyn., 246, 286-294 (1980)]. Male Wistar rats, weighing 130-150 g, were fasted for 18 hours before experimentation, and 1.5 ml of a test meal (phenol red 0.05% in a 1.5% aqueous methylcellulose solution) was orally given. Fifteen minutes after administration of the meal the stomach was removed and the amount of phenol red remaining in the stomach was measured. The test compounds, 10, 30 or 100 mg/kg, each dissolved or suspended in a 0.5% tragacanth solution, were orally administrated 60 minutes before administration of the test meal. Gastric emptying was delayed by subcutaneous administration of cholesystokinin 3 μg/kg or morphine 3 mg/kg 5 minutes before the administration of phenol red. The number of animals used was 5 to 10.

gastric emptying = assay: Gastric emptying enhancing activity; format: in vivo, Male Wistar rats; conditions: 3 mg/kg oral, 60 min before test meal; increase from control
Method: The test was carried out according to the method of Scarpignato et al. [cf. Arch. Int. Pharmacodyn., 246, 286-294 (1980)]. Male Wistar rats, weighing 130-150 g, were fasted for 18 hours before experimentation, and 1.5 ml of a test meal (phenol red 0.05% in a 1.5% aqueous methylcellulose solution) was orally given. Fifteen minutes after administration of the meal the stomach was removed and the amount of phenol red remaining in the stomach was measured. The test compounds, dissolved or suspended in a 0.5% tragacanth solution, were orally administered 60 minutes before administration of the test meal. The rate of gastric emptying was calculated according to the amount of phenol red remaining in the stomach, and the activity of the test compounds was expressed in terms of increase in the emptying rate from the control.

exploratory activity = assay: Inhibitory effect on exploratory activity; format: in vivo, male mice (Std-ddy strain); conditions: oral, 2 h before test; 3 min counting; Probit
From the text: A group of 5 male mice (Std-ddy strain, 20-25 g) was used. Two hours after oral administration of the test compounds in the form of 0.5% tragacanth solution or suspension, mice were placed individually in a test box (23×35×30 cm) on Animex activity meter (Farad Co.). Immediately thereafter, activity counting was started and lasted for three minutes. The mean counts of the compound-treated group were compared with those of the corresponding control (non-dosed) group, and the percent inhibition was calculated and the 50% inhibitory dose (ID50) was obtained according to the method of Probit.

[2] = tested on: apomorphine-induced vomiting; assay: Inhibitory effect on apomorphine-induced vomiting; format: in vivo, dogs (Beagle); conditions: 2 h before s.c. apomorphine hydrochloride 0.3 mg/kg, emetic episodes 1 h
Method: A group of 3-4 dogs (Beagle, 8-15 kg) was used for examining inhibitory effects of the test compounds on apomorphine-induced vomiting according to the method of Chen and Ensor [cf. J. Pharmacol. Exp. Ther., 98, 245-250 (1950)]. Test compounds, dissolved or suspended in a 0.5% tragacanth solution were orally administered two hours before the subcutaneous administration of apomorphine hydrochloride (0.3 mg/kg). Then, the emetic episodes were counted for one hour. The emetic episodes of the compound-treated group were compared with those of the corresponding control (non-dosed) group, and the percent inhibition was calculated.

[3] = tested on: gastrointestinal motility; assay: Gastrointestinal motility improving activity (overall statement); conditions: in vivo
[4] = tested on: gastrointestinal motility; assay: Effect on gastrointestinal motility in conscious dog; format: in vivo, beagle dogs; conditions: 3 and 10 mg/kg intragastric; fed state, conscious dogs
Method: Four healthy beagle dogs per group of both sexes weighing 10 to 12 kg were anesthetized with an i.v. injection of pentobarbital sodium (Nembutal, 30 mg/kg b. wt.), and the abdominal cavity was opened under aseptic conditions. Extraluminal force transducers were sutured onto the seromuscular layer of the gastric antrum, 3 cm proximal to the pyloric ring, the duodenum, the jejunum, the […] terminal ileum in a manner to measure circular muscle contraction, following the method of Ito et al., [cf. Gastrointerol. Japan. 12, 275-283 (1977).] For intragastric (i.g.) administration of drugs, a Silastic tube (Fr. size 6.5) was inserted into the lumen of the gastric body, and the tube was fixed onto the adjacent serosa. The lead wires of these transducers and gastric tube were taken out of abdominal cavity and then brought out through a skin incision made between the scapulae. The outer ends of the lead wires were sutured onto the skin adjacent to the skin incision. After the operation, jacket protector was placed on the dog to protect the lead wires and the Silastic tube. The dogs were housed in individual experimental cages and given dog food at 10 a.m., and water was given freely. Test compounds at 3 and 10 mg/kg were suspended in 0.5% tragacanth solution and given i.g. through the indwelling Silastic tube.

[5] = tested on: gastric emptying delayed by cholecystokinin; assay: Effect on gastric emptying delayed by cholecystokinin; format: in vivo, Male Wistar rats; design: key to Effect on gastric emptying delayed by cholecystokinin: +: slightly to moderately improved; ++: markedly improved; ±: no improvement; conditions: for Effect on gastric emptying delayed by cholecystokinin: cholecystokinin 3 μg/kg s.c.
Method: as §1

## CCN(CC)CCNC(=O)c1cc(Cl)c(N)cc1OC [metoclopramide, 4-amino-5-chloro-N-[2-(diethylamino)ethyl]-2-methoxybenzamide]
Dopamine D2 receptor
  Dopamine D2 receptor antagonistic activity: dopamine D2 receptor antagonistic activity
Dopamine D2 receptor; derived from dopamine D2 receptor antagonistic activity
  CNS depressant activity: possesses CNS depressant activity

## CCN1CCCC[C@@H](NC(=O)c2cc3nn[nH]c3cc2OC)C1 [Compound 7b, (R)-N-(1-ethyl-1H-hexahydroazepin-3-yl)-6-methoxy-1H-benzotriazole-5-carboxamide.3/2 fumarate]
In vivo
  LD50 at 168 h: 945 mg/kg
[1]; 10 mg/kg oral
  Effect on gastric emptying delayed by morphine: +
[1]; 30 mg/kg oral
  Effect on gastric emptying delayed by morphine: ++
[1]; 100 mg/kg oral
  Effect on gastric emptying delayed by morphine: ++
[1]; 10, 30 or 100 mg/kg
  Gastric emptying delayed by morphine (in words): significantly improved gastric emptying delayed by cholecystokinin or morphine
Gastric emptying
  Increase in gastric emptying rate: 34%
Exploratory activity
  ID50 (inhibition of exploratory activity): > 100 mg/kg
[2]; 0.1 mg/kg oral
  Inhibition of apomorphine-induced vomiting: 69%
[2]; 1.0 mg/kg oral
  Inhibition of apomorphine-induced vomiting: 100%
[3]
  Gastrointestinal motility improving activity (in words): especially excellent gastrointestinal motility improving activity
[4]
  Interdigestive migrating like-contractions: caused interdigestive migrating like-contractions in fed state in conscious dogs
[5]; 10 mg/kg oral
  Effect on gastric emptying delayed by cholecystokinin: +
[5]; 30 mg/kg oral
  Effect on gastric emptying delayed by cholecystokinin: ++
[5]; 100 mg/kg oral
  Effect on gastric emptying delayed by cholecystokinin: ++
[5]; compound 2: 30 or 100 mg/kg, 7b and Compound A: 10, 30 or 100 mg/kg
  Gastric emptying delayed by cholecystokinin (in words): significantly improved gastric emptying delayed by cholecystokinin or morphine
